Measurements taken from US20070275936A1, “Formulations and Treatment Methods” (priority 1998, published 2007).

What was measured:
P. berghei HP15 ANKA = test: Four-day in vivo suppressive test in TO mice; design: species or system Plasmodium berghei; settings: 100 mg/kg × 4 days i.p., day 5 blood films, 5 equals control
Procedure: The 4-day suppressive test has been widely used and it can be performed within a 1 week period. The test consists of the inoculation of parasitised erythrocytes on the first day of the experiment (D0), followed by an injection of the test compound, which is also administered on the 2nd, 3rd and 4th days of the protocol. On the 5th day, blood films are taken and antimalarial activity is assessed either by calculating parasitemia, or by scoring parasite numbers on a predetermined scale (i.e., 1-5).
The protocol is summarized as follows. Five female TO mice were used per test group. P. berghei HP15 ANKA parasites were collected by cardiac puncture using a heparinised syringe from a donor mouse having a 30+% parasitaemia. The blood was diluted with diluting agent (50% HIFCS+50% sterile PBS) to a final concentration of 1% parasitaemia or 1×10^7 infected erythrocytes per 0.2 mL of the infecting suspension. […] The steroid formulations were administered intraperitoneally 2 hours after parasite inoculation. The compounds were administered once a day starting on Do, and continued on the following three days. Blood films were made from tail blood on the day after the last dosing of compound and the blood was fixed with 100% methanol and stained with 10% Giemsa. Parasitaemias were scored on a scale of 0-5, where 5 is equal to the control.
An inoculum of 1% parasitaemia […], 0.2 mL per mouse (female strain TO mice), was delivered by intravenous injection. Drug administration commenced 2 hours after inoculation on Day 1 and continued for 3 days.

Sprague Dawley rats = test: TNBS induced distal colitis in rats; type: in vivo; settings: day 14
Procedure: In another protocol formula 1 compounds were used in a similar animal model. Groups of 10 male Sprague Dawley rats (250-300 grams) were fasted for 24 hours before 2,4,6-trinitrobenzene sulfonic acid (TNBS) or saline challenge. This model presents a severe challenge to the animal's immune system. On Day 0, the rats were lightly anesthetized and a catheter inserted rectally into the colon such that the tip was 8 cm proximal to the anus. Distal colitis was induced by intra-colonic instillation of 0.5 mL of an ethanolic solution of TNBS (60 mg/mL ethanol 50% in water). The test substance, 7-oxodehydroepiandrosterone 20 mg/mL in vehicle or vehicle control was administered by subcutaneous injection (0.1 mL/injection) once a day for 6 days, the first dose being given 30 minutes after TNBS challenge. Sulfasalazine (30 mg/mL in 2% Tween 80 in distilled water) or vehicle control was administered orally (PO) once a day (10 mL/kg/day) for 7 days, the first two doses beginning 24 hours and 2 hours before […] challenge. Signs of diarrhea were recorded daily by examining the anal area. Animals were fasted for 24 hours prior to sacrifice on day 14 and the colon was removed and weighed. After gross observations of colonic tissues, 3 samples were taken from regions approximately 1, 3, and 8 cm proximal to the anus. If gross ulcers or inflammation were present, at least one sample was taken from the affected region. Before removal of the colon, signs of adhesion between the colon and other organs were recorded. […] Body weight, colon-to-body-weight ratio, and damage scores were assessed. Visible damage was scored on a 1-5 scale as follows: 0=No damage; 1=Localized hyperemia but no ulcers; 2=linear ulcers with no significant inflammation; 3=Linear ulcers with inflammation at one site; 4=Two or more sites of ulceration and/or inflammation; 5=Two or more major sites of ulceration and inflammation or one major site of ulceration and inflammation extending more than 1 cm along the length of the colon. […]

BALB/c mice = test: Reversal of immunosenescence: HBsAg vaccination of aged mice; type: in vivo; settings: for mice producing anti-HBsAg in response to secondary vaccination: groups of 8, 0.3 mg/mouse at primary vaccination
Procedure: Healthy aged (20-month) or immunologically-mature (3-month) BALB/c mice were vaccinated with hepatitis B surface antigen (HBsAg) (2 μg; Recombivax-HB; Merck) and Alum (2.75 μg). The aged mice were vaccinated with the antigen and also received a single subcutaneous injection of either 0.3 mg or 3.0 mg of 3β,7β,17β-trihydroxyandrost-5-ene (AET), BrEA or 7-oxodehydroepiandrosterone, dehydroepiandrosterone or the vehicle (placebo control). The AET, BrEA hemihydrate or dehydroepiandrosterone was present in a formulation that contained 60 mg/mL of the compound suspended in 0.1% w/v carboxymethyl cellulose sodium in 0.9% saline. 7-Oxodehydroepiandrosterone was in a formulation that contained 60 mg/mL of the compound suspended in 0.1% w/v gum arabic in 0.9% saline. A concentration of 6 mg/mL was obtained by diluting the 60 mg/mL formulation with vehicle that lacked the active substance.
Blood samples were collected 14, 21 and 34 days after treatment and the sera were analyzed by ELISA to determine the concentration of HBsAg-specific IgG (total IgG). In addition, samples obtained on day 21 were analyzed to determine the concentration of HBsAg-specific IgG1 and IgG2a subclasses. The results summarized below were average values obtained with blood samples collected 21 days after vaccination of groups of 8 mice. Subcutaneous injection was performed after shaving the hair from the thighs of each mouse. The injected volume was 50 μL for compound (3.0 mg or 0.3 mg) or placebo, and for vaccine preparation. The vehicle control consisted of carboxymethylcellulose (0.5%) in saline (0.9%). Antibody titers were determined by ELISA.
Secondary antibody response. Later, 42 days after the initial exposure to HBsAg, serum samples were taken from the mice described in the previous section and these were tested for anti-HBsAg IgG. At this time-point, vaccine-specific IgG titers were either low or undetectable. Three days later (45 days after first vaccination), the mice were injected again with HBsAg in Alum, but this time, none of the mice received immunosteroid (secondary vaccination). Serum samples collected 7 days and 14 days after the second exposure to HBsAg vaccine were assayed for anti-HBsAg antibody. […] In contrast, in aged mice that had received no immunosteroid with the first HBsAg injection, low levels of anti-HBsAg were detectable, and only in 4 of the 8 mice in this group was antibody detectable. Increases in anti-HBsAg titers were seen following secondary vaccination in aged animals that had been treated with immunosteroid in conjunction with the first HBsAg exposure. The anti-HBsAg antibody titer in serum increased following secondary vaccination in all 8 mice in the groups of aged mice that were treated at primary vaccination with the higher dose (3 mg/mouse) of AET, BrEA or 7-oxodehydroepiandrosterone, or with dehydroepiandrosterone (0.3 mg/mouse). In those aged mice that had received the lower dose (0.3 mg/mouse) of AET, BrEA or 7-oxodehydroepiandrosterone at vaccination, an intermediate response was seen, with 6 of the 8 mice producing detectable anti-HBsAg in response to secondary vaccination.

| Compound | Parasitaemia Score (0-5) (P. berghei HP15 ANKA) | histopathology: inflammation / lesion frequency and severity versus controls (Sprague Dawley rats) | mice producing anti-HBsAg in response to secondary vaccination (BALB/c mice) | mice with increased anti-HBsAg antibody titer following secondary vaccination (BALB/c mice; groups of 8, 3 mg/mouse at primary vaccination) |
| --- | --- | --- | --- | --- |
| C[C@]12CC[C@H](O)C[C@@H]1CC[C@@H]1[C@@H]2CC[C@]2(C)C(=O)[C@H](Br)C[C@@H]12 [BrEA, 16α-bromo-3β-hydroxy-5α-androstane-17-one] | 1 | appeared to be similar | 6 mice | 8 mice |
| C[C@]12CC[C@H](O)CC1=CC[C@@H]1[C@@H]2CC[C@]2(C)C(=O)CC[C@@H]12 [DHEA, dehydroepiandrosterone, reference compound] | 1 | appeared to be similar | 8 mice | – |
